From the METLIN SMRT retention time set (Domingo-Almenara et al. 2019) come the findings set out here.

Structures are written as SMILES.

A short description of this data set: gradient 5% acetonitrile 3 min, to 50% in 2 min, to 85% in 15 min, held 3 min, 100 µL/min. Particulars: column: Zorbax Extend-C18 2.1 x 50 mm; eluents: water / acetonitrile, 0.1% formic acid. In outline:
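Over 3 months, pure standards in mixtures of ~100 molecules were run by HPLC coupled to a quadrupole time-of-flight mass spectrometer in positive and negative ionization mode. The column was a Zorbax Extend-C18 (2.1 × 50 mm, 1.8 μm) at 100 μL/min, eluted with water and acetonitrile each holding 0.1% formic acid, with 40 μL dead and 900 μL dwell volumes. Retention time was determined from adduct peaks chosen by software and checked manually.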
In turn, `COc1ccc(-n2c(=O)n(C)c(=O)c3cc(C(=O)Nc4ccccc4)cnc32)cc1` returned an RP-LC retention time of 862 s.

In turn, `O=C(CN1C(=O)CCC1=O)Nc1nc(-c2ccc(Cl)cc2Cl)cs1` returned an RP-LC retention time of 850 s.

On to `CC1(C)C(=O)N(CC(=O)Nc2cccc(Cl)c2)c2ccccc21`, for which the RP-LC retention time turned out to be 978 s.

`COc1ccccc1-c1noc(C2CCCN2C(=O)Nc2cc(C)ccc2C)n1` (stereo not drawn): the RP-LC retention time stood at 906 s.

`COC(=O)c1cc(C)nc2c1c(=O)n(Cc1ccc(Cl)cc1)c(=O)n2Cc1ccco1`: the RP-LC retention time was determined as 1160 s.

The compound `CC(C)c1ccc(CNC(=O)C2CCN(C(=O)c3ncn4c3COC(c3ccccc3)C4)CC2)cc1` (stereo not drawn) had an RP-LC retention time of 892 s.

Compound `Cc1cc(C)cc(NC(=O)CSc2cc(N3CCCCC3)ncn2)c1` returned an RP-LC retention time of 990 s.

The compound `CCc1nc2c(c(=O)n1CC(=O)NCc1ccccc1F)CN(Cc1ccccc1)CC2` yielded an RP-LC retention time of 649 s.

The compound `Cc1oc(-c2[nH]ncc2C(=O)N2CCCC2)cc1S(=O)(=O)Nc1ccc(Cl)cc1` yielded an RP-LC retention time of 739 s.

On to `CC(C)n1c(N2CCCN(C(=O)c3ccnn3C)CC2)cc(=O)n(C(C)C)c1=O`, for which the RP-LC retention time was 707 s.

Compound `CCc1nc(-c2csc(S(=O)(=O)N3CCCC(C(=O)Nc4ccccc4CC)C3)c2)no1` (stereo not drawn) yielded an RP-LC retention time of 1060 s.

The compound `Oc1ccccc1-n1c(-c2ccccc2)ccc1-c1ccccc1` yielded an RP-LC retention time of 1190 s.

In turn, `O=C(Cn1ccnc1-c1ccnc(N2CCCC2)c1)NC1CCCCC1` returned an RP-LC retention time of 595 s.

For `Cn1cc(C(=O)NCc2ccc(F)cc2F)c(S(=O)(=O)N2CCSCC2)n1`, the RP-LC retention time came to 876 s.

For `O=c1c2nc(-c3ccccc3)cn2ccn1-c1cccc(Cl)c1`, the RP-LC retention time stood at 852 s.

Turning to `O=C(NCCc1c[nH]c2ccccc12)c1cc2cccnc2n(Cc2ccccc2F)c1=O`, the RP-LC retention time amounted to 1080 s.

`CC(C)n1cnc(S(=O)(=O)N2CCC(C(=O)N3CCc4ccccc4C3)CC2)c1` had an RP-LC retention time of 765 s.

The compound `O=C(NCc1ccsc1)C(=O)Nc1cccnc1` came in with an RP-LC retention time of 566 s.

In turn, `O=C(NCc1ccc(F)cc1Cl)C1CCCN(c2nn3c(=O)c4c(nc3s2)CCCC4)C1` (stereo not drawn) came in with an RP-LC retention time of 827 s.

In turn, `CCN1C(=O)c2cc(C(=O)NCCCc3ccccc3)nn2CC1(C)C(=O)NC1CCCC1` (stereo not drawn) returned an RP-LC retention time of 845 s.

With `O=C(N1CCC(c2nnc(-c3ccc(F)cc3)o2)CC1)C1(c2ccccc2)CCOCC1`, the RP-LC retention time is 631 s.

`COC(=O)c1cccc(N2C=C(C(=O)N3CCCC3)S(=O)(=O)c3ccc(Cl)cc32)c1` displayed an RP-LC retention time of 831 s.

`O=C(Cn1c(=O)nc(N2CCCCC2)c2ccccc21)Nc1cc(F)cc(F)c1` yielded an RP-LC retention time of 829 s.

The compound `CC(=O)N1CCC(C(=O)NCc2ccc(-c3nc(-c4ccc(F)cc4)no3)s2)CC1` returned an RP-LC retention time of 786 s.

On to `CCc1nc(-c2csc(S(=O)(=O)N3CCC(C(=O)Nc4cccc(C#N)c4)CC3)c2)no1`, for which the RP-LC retention time turned out to be 966 s.

`Cc1cc(C)n(-c2ccnc(N3CCc4ccccc43)n2)n1` yielded an RP-LC retention time of 1340 s.

In the case of `CSc1cccc(NC(=O)Cn2c(=O)cc(-c3nc(C4CC4)no3)c3ccccc32)c1`, the RP-LC retention time came out at 686 s.

The compound `Cc1cc(=O)n(CC(=O)Nc2cc(F)cc(F)c2)c(N2CCCC2)n1` registered an RP-LC retention time of 670 s.

For the compound `COC(=O)c1ccc2c(=O)n(-c3ccc4c(c3)OCO4)c(N3CCN(c4ccccc4)CC3)nc2c1`, the RP-LC retention time came out at 1110 s.

Take `CCOc1cccc(CN2CCc3nc(N4CCN(c5ccccc5)CC4)ncc3C2)c1`: the RP-LC retention time stood at 785 s.

`CC1CCC(NC(=O)CN2C(=O)C(C(=O)N3CCCCC3)Sc3ccccc32)CC1` (stereo not drawn) registered an RP-LC retention time of 1090 s.

`O=C(Nc1ccc(Cl)cc1)c1cn(CC(O)c2ccc3c(c2)OCO3)nn1` (stereo not drawn) came in with an RP-LC retention time of 841 s.

`COc1ccc2[nH]c(C(=O)N[C@@H](C)C(=O)NCCc3c[nH]c4ccccc34)cc2c1OC` returned an RP-LC retention time of 769 s.

`O=C(NCCc1ccc(Cl)cc1)c1nnc(-c2ccc(S(=O)(=O)N3CCCC3)cc2)o1` had an RP-LC retention time of 1010 s.

The compound `O=S(=O)(c1ccc2c(c1)OCCO2)N1CCC(Cc2nc(-c3cccnc3)n[nH]2)C1` (stereo not drawn) registered an RP-LC retention time of 633 s.

Regarding `O=C(NCc1cccc(Br)c1)c1cn2ccccc2n1`, the RP-LC retention time came out at 730 s.

`CN(C)c1ncnc2c1ncn2-c1ccccc1` yielded an RP-LC retention time of 714 s.

Turning to `CC(C)c1ccc(S(=O)(=O)N2CCC3(CC2)c2nccn2CCN3C)cc1`, the RP-LC retention time was 720 s.

As to `Fc1ccc(Cc2noc(-c3nc(-c4ccncc4)no3)n2)cc1`, the RP-LC retention time came out at 943 s.

For `COc1cccc(OC(=O)c2cn(CC(C)C)c(=O)c3ccccc23)c1`, the RP-LC retention time was 1210 s.

`O=C(c1cccs1)N1CCN(S(=O)(=O)c2cc(-c3noc(C4CCC4)n3)cs2)CC1` had an RP-LC retention time of 998 s.

Turning to `O=C(CCCN1CCC2(CC1)C(=O)NCN2c1ccccc1)c1ccc(F)cc1`, the RP-LC retention time came to 725 s.

As for `CCC(C)NC(=O)N1CCN(Cc2nc3cc(C(=O)N4CCCC4)ccc3n2C)CC1` (stereo not drawn), the RP-LC retention time was 581 s.

As to `O=C(Nc1cccc(Cl)c1)Nc1nc(CC(=O)N2CCc3ccccc32)cs1`, the RP-LC retention time came to 978 s.

Take `CC(NC(=O)Cn1cnc2cc3c(cc21)OCCO3)c1ccc2c(c1)OCCCO2` (stereo not drawn): the RP-LC retention time amounted to 646 s.

As for `CN(C)c1ccc(C(=O)NC(Cc2ccccc2)c2nnc(N3CCCCC3)o2)cc1` (stereo not drawn), the RP-LC retention time worked out at 889 s.

In turn, `COc1cccc(CNC(=O)C2CCCN(C(=O)c3[nH]c(C)c(C(=O)OC(C)C)c3C)C2)c1` (stereo not drawn) yielded an RP-LC retention time of 845 s.

Turning to `COc1ccc(-c2noc(C3CCCN3C(=O)Nc3ccc(C)cc3C)n2)cc1` (stereo not drawn), the RP-LC retention time was determined as 925 s.

On to `CCCS(=O)(=O)NCc1ccc2c(c1)CCN2C(=O)CC`, for which the RP-LC retention time worked out at 686 s.

Compound `Cc1ccc(N2CCN(C(=O)c3cn4ccc(C)cc4n3)CC2)cc1` came in with an RP-LC retention time of 664 s.

Take `CCCC(=O)Nc1nc(-c2ccc3c(c2)N(C)C(=O)CO3)cs1`: the RP-LC retention time came out at 821 s.

`O=C(NCCn1c(-c2ccncc2)nc2cccnc21)Nc1cccc(Cl)c1`: the RP-LC retention time was 645 s.

Take `COCCNC(=O)C1CCc2sc(C(=O)N3CCCCC3)cc2C1` (stereo not drawn): the RP-LC retention time stood at 651 s.

The compound `COc1ccc(C(=O)N2CCn3c(C)nnc3C2)c(OC)c1` showed an RP-LC retention time of 557 s.

In the case of `CC(=O)N1C[C@@H]2CCCN3CCC[C@@H]([C@H]23)[C@H]1CCCC(=O)NCC1CC1`, the RP-LC retention time amounted to 562 s.

Compound `CCCc1cc(N2CCN(C(=O)c3ccc(OC)nc3)CC2)nc2nnc(CC)n12` returned an RP-LC retention time of 623 s.

Compound `CC1Cc2ccccc2N1C(=O)Cc1csc2nc(-c3ccccc3)cn12` (stereo not drawn) came in with an RP-LC retention time of 881 s.

`CSc1ncccc1-c1nnc(C)o1` displayed an RP-LC retention time of 712 s.

In turn, `O=C1NCCCCCN(C(=O)Nc2ccccc2F)[C@H]2CCCC[C@@H]12` returned an RP-LC retention time of 815 s.

For `Cc1nnc(NC(=O)CCc2csc(NC(=O)c3ccco3)n2)s1`, the RP-LC retention time stood at 630 s.

The compound `O=c1c2ccccc2ccc2ccccc12` came in with an RP-LC retention time of 1120 s.

Consider `COc1cc(OC)c(OC)cc1CN(C)CCc1ccccn1`, for which the RP-LC retention time came to 593 s.

Turning to `CN1CCCn2cc(S(=O)(=O)NCc3ccccc3Cl)cc2C1=O`, the RP-LC retention time was found to be 704 s.

Compound `Cc1ccc(NC(=O)C2CCCN(c3ncnc4c3nc3n4CCCCC3)C2)cc1C` (stereo not drawn) displayed an RP-LC retention time of 870 s.

For `CC(=O)N1c2ccc(S(=O)(=O)N3CCCCC3)cc2CC1C(=O)Nc1cc(C)ccc1C` (stereo not drawn), the RP-LC retention time was 912 s.

With `CCC(C(=O)c1ccccc1)n1c(N2CCOCC2)nc2c1c(=O)n(C)c(=O)n2C` (stereo not drawn), the RP-LC retention time worked out at 806 s.

For the compound `CC(C(=O)NCCc1c[nH]c2ccc(Cl)cc12)n1c2ccccc2c2cnn(C)c(=O)c21` (stereo not drawn), the RP-LC retention time was determined as 930 s.

In turn, `COc1cccc2c1OC1(C)CC2C(S(=O)(=O)c2ccc(C(C)(C)C)cc2)C(=O)N1` (stereo not drawn) gave an RP-LC retention time of 1010 s.

For `CC(NC(=O)Cc1nnc2cc(-c3nc(C4CC4)no3)ccn12)c1ccc(F)cc1` (stereo not drawn), the RP-LC retention time amounted to 780 s.

For the compound `Cc1ccc(C(=O)NC2CCN(c3cc(-c4cccs4)[nH]n3)C2)cc1F` (stereo not drawn), the RP-LC retention time stood at 798 s.

Compound `O=C(CCc1c(-c2ccc(Cl)cc2)nc2ccccn12)NCCCc1ccccc1` yielded an RP-LC retention time of 719 s.

In turn, `CCc1ccc(NC(=O)C2CCN(S(=O)(=O)c3ccc4c(c3)sc(=O)n4C(C)C)CC2)cc1` registered an RP-LC retention time of 1060 s.

`Cc1oc2ccn(Cc3ccccc3F)c(=O)c2c1C(=O)NC(C)c1ccccc1` (stereo not drawn): the RP-LC retention time was 1150 s.

As to `CCN1C(=O)c2cccnc2Sc2cc(NC(=O)c3ccc(C)cc3)ccc21`, the RP-LC retention time stood at 859 s.

Regarding `CCCCC(=O)Nc1nc(-c2ccc3c(c2)N(CC)C(=O)CO3)c(C)s1`, the RP-LC retention time worked out at 982 s.

Consider `COCCc1noc(-c2cnc3nc(C)ccc3c2Nc2ccc(Cl)cc2)n1`, for which the RP-LC retention time was 760 s.

The compound `COc1ccc(NC(=O)c2c(-c3c(F)cccc3Cl)noc2C)cc1[N+](=O)[O-]` returned an RP-LC retention time of 992 s.

In turn, `O=C(NC1CC1)c1ccc(OCC2CCCN(C(=O)c3ccc(F)c(Cl)c3)C2)cc1` (stereo not drawn) displayed an RP-LC retention time of 862 s.
